{
  "source": "patent US11953435B2",
  "about": "“Zinc-responsive fluorophores” (Northwestern University, priority 2019, dated 2024)",
  "test": "Stability of ZincBY-4 over 12 h by fluorescence intensity",
  "assay_type": "physicochemical",
  "settings": "for retention of fluorescence intensity after 12 hours: 10 mM glutathione (GSH); for fluorescence intensity after 12 hours: absence of GSH",
  "procedure": "Aqueous solutions were prepared by using de-ionized water with resistivity […], obtained using a Milli-Q water purification system. In order to properly compare the photophysical properties of ZincBY-2, ZincBY-3, and ZincBY-4 to ZincBY-1, the photophysical properties of ZincBY-1 we remeasured. […] Stock solutions of ZincBY-1, ZincBY-2, ZincBY-3, and ZincBY-4 were prepared at concentrations of 5 mM and stored at −20° C. in aliquots that were used immediately after thawing for each experiment. Unless otherwise stated, all spectroscopic methods were conducted in aqueous buffer containing 50 mM HEPES (pH 7.2) and 0.1 M KNO3. UV-visible spectra were acquired on a PerkinElmer Lambda 650 UV/Vis spectrophotometer using quartz cuvettes from Starna (1 cm path length, 10 cm path length used in extinction coefficient and quantum yield determination). Fluorescence spectra were acquired using a PerkinElmer LS 55 fluorescence spectrophotometer. For measurements containing zinc, 99.0% ZnNO3 hexahydrate (final concentration 5 μM) was used. For experiments analyzing apo probes, N,N,N′,N′-Tetrakis(2-pyridylmethyl)ethylenediamine (TPEN) (final concentration 5 μM) was added to solution. Quantum Yield and Extinction Coefficient Determination. Quantum yields for apo and holo ZincBY-1, ZincBY-2, ZincBY-3, and ZincBY-4 were determined by plotting absorbance vs. fluorescence intensity of solutions containing ZincBY-1, ZincBY-2, ZincBY-3, or ZincBY-4 at probe concentrations ranging from 50-250 nM. […] Fluorescein dissolved in 0.1 N NaOH was used as the quantum yield standard, using a literature-determined quantum yield of 0.95.^3 For all fluorophore solutions, fluorescence excitation was set at 490 nm and fluorescence emission was integrated from 510 nm to 650 nm. […] Fluorescence spectra were recorded using zinc probes (ZincBY-1, ZincBY-2, ZincBY-3, or ZincBY-4; 200 nM) and ZnSO4 (various concentrations). […] Free Zn^2+ was calculated according to a previously reported method (Ref. B4; incorporated by reference in its entirety). […] The fluorescence spectra of zinc probes (ZincBY-2, ZincBY-3, or ZincBY-4; 200 nM) wasere measured at various pH values (4.5-11). […] The fluorescence spectra of zinc probes (ZincBY-2, ZincBY-3, or ZincBY-4; 200 nM) were measured in the presence an excess of metal ion including 1 mM KNO3, 1 mM NaNO3, 1 mM CaSO4, 1 mM MgSO4, 15 μM MnSO4, 15 μM (NH4)2Fe(SO4)2, 15 μM NH4Fe(SO4)2, 15 μM CoSO4, 15 μM NiSO4, 15 μM CuSO4, 15 μM [Cu(CH3CN)4]PF6, 15 μM CdSO4, 15 μM Hg(NO3)2, 15 μM Pb(NO3)2, or 15 μM ZnSO4. The fluorescence spectra were compared to that of ZincBY-2 (200 nM), ZincBY-3 (200 nM), or ZincBY-4 (200 nM) in the presence of 10 μM TPEN. […] A log P value for each probe was determined by agitating nanomolar solutions of each probe in a 1:1 mixture of HEPES buffer and 1-octanol. […]",
  "data": [
    {"smiles": "CC(=O)NCCOc1ccc2n1[B-](F)(F)[N+]1=C(N(CCN(Cc3ccccn3)Cc3ccccn3)Cc3ccccn3)C=CC1=C2c1c(C)cc(C)cc1C", "note": "[ZincBY-4, N-(2-((7-((2-(bis(pyridin-2-ylmethyl)amino)ethyl)(pyridin-2-ylmethyl)amino)-5,5-difluoro-10-mesityl-5H-5λ4,6λ4-dipyrrolo[1,2-c:2′,1′-f][1,3,2]diazaborinin-3-yl)oxy)ethyl)acetamide]", "values": [
      {"measurement": "retention of fluorescence intensity after 12 hours", "setting": "apo", "value": 40, "unit": "%"},
      {"measurement": "fluorescence intensity after 12 hours", "setting": "apo", "value": 7, "unit": "%"},
      {"measurement": "retention of fluorescence intensity after 12 hours", "setting": "holo", "value": 97, "unit": "%"},
      {"measurement": "fluorescence intensity after 12 hours", "setting": "holo", "value": 83, "unit": "%"}
    ]}
  ]
}
